For 13 compounds, Ki and modulation results are on record in PMC4657098, “A Review of the Updated Pharmacophore for the Alpha 5 GABA(A) Benzodiazepine Receptor Model” (International Journal of Medicinal Chemistry, 2015).

Test [1] has as its target T1, α2β3γ2 GABAA/BzR (Homo sapiens, UniProt P18507+P47869). Set-up: expressed in transfected cells; host or cells: LTK cells (given for XLi-093 only). Particulars: cited from earlier work.
Test [2] concerns the target T2, α3β3γ2 GABAA/BzR (Homo sapiens, UniProt P18507+P34903). Further details: expressed in transfected cells; host or cells: LTK cells (given for XLi-093 only). The conditions noted are these: cited from earlier work.
Test [3] addresses T3, α5β3γ2 GABAA/BzR (Homo sapiens, UniProt P18507+P31644). Set-up: expressed in transfected cells; host or cells: LTK cells (given for XLi-093 only). The conditions noted are these: cited from earlier work.
Test [4] deals with T4, α1β3γ2 GABAA/BzR (Homo sapiens, UniProt P14867+P18507). Further details: expressed in transfected cells; host or cells: LTK cells (given for XLi-093 only). The conditions noted are these: cited from earlier work.
For test [5], the target named is T5, α6β3γ2 GABAA/BzR (Homo sapiens, UniProt P18507+Q16445). Further details: expressed in transfected cells; host or cells: LTK cells (given for XLi-093 only). The conditions noted are these: cited from earlier work.
Test [6] has as its system Bz BS of GABA(A) receptors. The conditions noted are these: cited from earlier work.
For test [7], the target named is T4, α1β3γ2 GABAA/BzR. Briefly: Competition binding to HEK cell membranes, α1β3γ2. Set-up: expressed in transfected cells.
Test [8] has as its target T3, α5β3γ2 GABAA/BzR. Briefly: Competition binding to HEK cell membranes, α5β3γ2. Set-up: expressed in transfected cells.
For test [9], the target named is T1, α2β3γ2 GABAA/BzR. Description: Competition binding to HEK cell membranes, α2β3γ2. Further details: expressed in transfected cells.
For test [10], the target named is T2, α3β3γ2 GABAA/BzR. Description: Competition binding to HEK cell membranes, α3β3γ2. Set-up: expressed in transfected cells.
In test [11] the target is T5, α6β3γ2 GABAA/BzR. Briefly: Competition binding to HEK cell membranes, α6β3γ2. Further details: expressed in transfected cells. Particulars: Ki α6.
Test [12] has as its target T6, α4β3γ2 GABAA/BzR (Homo sapiens, UniProt P18507+P48169).
T6 construct: expressed in transfected cells; host or cells: LTK cells (given for XLi-093 only)
Briefly: biochemical. Format: binding.

Read-outs that look alike come from different tables or passages of the source.

The term Ki denotes a dissociation constant, usually derived from enzyme kinetics or from competition with a known ligand. For the compound `CN1Cc2c(CCl)ncn2-c2ccc(Cl)cc2C1=O` [compound 5], the inhibitory constant (Ki) in [1] (Figure 4, read-out: Ki α2) was more than 300 nM; in test [2] (Figure 4, read-out: Ki α3) it was more than 300 nM; in test [3] (Figure 4, read-out: Ki α5), 28.5 nM; in [4] (Figure 4, read-out: Ki α1), more than 300 nM; in [5] (Figure 4, read-out: Ki α6), more than 300 nM.

Turning to `CCOC(=O)c1cc2c(cn1)[nH]c1ccccc12` [BCCE, reference compound], the modulation entry in test [6] is listed as “inverse agonist”. In addition, in test [7] (read-out: Ki α1), the Ki is 1.2 nM.

Turning to `CCCOc1ccc2[nH]c3cnc(C(=O)OCC)c(COC)c3c2c1` [6-PBC, 6-(propyloxy)-4-(methoxymethyl)-β-carboline-3-carboxylic acid ethyl ester], the Ki was 2.39 nM in test [8] (Ki α5); 1.21 nM in [9] (Ki α2); 2.2 nM in test [10] (Ki α3); 1340 nM in [11]; 0.49 nM in test [7] (Ki α1). Also, in test [6] (Supplement Table 1), the modulation entry is reported as “partial agonist”.

For `C[Si](C)(C)C#Cc1ccc2[nH]c3cnc(C(=O)OCC(F)(F)F)cc3c2c1` [WY-B-25], the inhibition constant (Ki) in [8] (Ki α5) is 263 nM; in [9] (Ki α2), 40 nM; in test [10] (Ki α3) it was 66 nM; in [12], 2000 nM; in [11], 2000 nM; in test [5] (Figure 33, αxβ3γ2, read-out: Affinity Ki α6), more than 3000 nM. The compound further came in with a Ki in [7] (Ki α1) of 7.6 nM.

In the case of Ro15-4513 [reference compound], the Ki came to 0.26 nM in test [8] (read-out: Ki α5) and 2.6 nM in test [9] (read-out: Ki α2). In [6], the modulation result is “inverse agonist”.

Take `Cc1nnc2n1-c1ccc(Cl)cc1C(c1ccccc1Cl)=NC2` [triazolam]: the modulation result in test [6] (Supplement Table 1) is “agonist”.

In the case of `Cc1ccc(-c2nc3ccc(C)cn3c2CC(=O)N(C)C)cc1` [zolpidem], the modulation result in test [6] (Supplement Table 1) is given as “agonist”.

In the case of `CC(C)(C)OC(=O)c1cc2c(cn1)[nH]c1ccc(-c3cccs3)cc12` [35(WYS12)], the Ki was 166 nM in test [1] (read-out: Affinity Ki α2); 314 nM in test [2] (read-out: Affinity Ki α3); 2860 nM in [3] (read-out: Affinity Ki α5); 37 nM in [4] (read-out: Affinity Ki α1); 5000 nM in [5] (read-out: Affinity Ki α6).

With `CC(C)(C)OC(=O)c1cc2c(cn1)[nH]c1ccc(C(C)(C)C)cc12` [CM-A82a], the inhibitory constant (Ki) in [8] (Ki α5) was 7.49 nM; in test [8] (read-out: Ki α5), 7.49 nM; in test [9] (Ki α2) it was 8.93 nM; in test [9] (read-out: Ki α2), 8.93 nM; in test [1] (read-out: Affinity Ki α2) it was 8.93 nM; in [10] (Ki α3) it was 24.5 nM. Moreover, the Ki in [10] (read-out: Ki α3) was 24.5 nM; in test [12], 1000 nM; in test [2] (read-out: Affinity Ki α3) it was 24.5 nM; in test [11], 1000 nM; in [3] (read-out: Affinity Ki α5), 7.49 nM; in [4] (read-out: Affinity Ki α1), 2.78 nM. For the same compound, the inhibition constant (Ki) in test [7] (Ki α1) and in test [7] (read-out: Ki α1) was 2.78 nM throughout.

For `COC(=O)c1cc2c(cn1)[nH]c1ccccc12` [-CCM, methyl beta-carboline-3-carboxylate], the modulation entry in test [6] (Supplement Table 1) is reported as “inverse agonist”.

As for `CN1C(=O)CN=C(c2ccccc2)c2cc(Cl)ccc21` [diazepam], in [6], the modulation entry is “agonist”.

For the compound `CCOC(=O)c1ncc2[nH]c3ccc(OCc4ccccc4)cc3c2c1COC` [ZK 93423, 6-(benzyloxy)-4-(methoxymethyl)-β-carboline-3-carboxylic acid ethyl ester, reference compound], the inhibitory constant (Ki) in test [8] (Ki α5) amounted to 4.5 nM; in test [9] (Ki α2), 4.2 nM; in test [10] (Ki α3) it was 6 nM; in test [11], 1000 nM; in test [7] (Ki α1), 4.1 nM. Besides, in test [6] (Supplement Table 1), the modulation result was “agonist”.

For `CC(C)(C)OC(=O)c1cc2c(cn1)[nH]c1ccc(F)cc12` [CM-A87], the Ki in test [8] (Ki α5) is 4.61 nM; in test [8] (read-out: Ki α5), 4.61 nM; in [9] (Ki α2) it was 4.54 nM; in [9] (read-out: Ki α2) it was 4.54 nM; in [1] (read-out: Affinity Ki α2), 4.54 nM; in test [10] (Ki α3) it was 14.7 nM. Besides, the inhibition constant Ki in test [10] (read-out: Ki α3) is 14.7 nM; in test [12] it was 1000 nM; in [2] (read-out: Affinity Ki α3), 14.7 nM; in test [11], 1000 nM; in [3] (read-out: Affinity Ki α5) it was 4.61 nM; in [4] (read-out: Affinity Ki α1), 1.62 nM. Further, the Ki in test [7] (Ki α1) and in test [7] (read-out: Ki α1) was 1.62 nM in each case.
